Source: US8987253B2, “Compound having activity of blocking NMDA receptor channel, and pharmaceutical agent using the same” (National University Corporation Chiba University, priority 2006, dated 2015)
Where two headings read alike, the source gives them in different places.

How the values were obtained:
NR1/NR2A = NR1/NR2A (Homo sapiens, UniProt Q05586+Q12879); test: Channel blocking activity on NMDA receptors (NR1/NR2A) expressed on Xenopus oocytes, two electrode voltage clamp; conditions: for voltage dependence of channel blocking activity: membrane potential changed from −150 mV to +10 mV
Experimental: The cDNA clones for NMDA receptors were used to prepare the cRNAs, which were then injected in Xenopus oocytes. The cRNAs of subtype 1 (NR1) and subtype 2 (NR2A) of NMDA receptors were injected in a Xenopus oocyte in a ratio of 1:5 (0.1 ng of NR1 and 0.5 ng of NR2A) and incubated in an incubator for several days to express the NMDA receptors on the membrane of the developed egg. The expression was confirmed by a two electrode voltage clamp system. A glass capillary was filled with a 3M potassium chloride solution for use as an electrode, which was then inserted into an egg placed in a perfusion solution to measure a change in membrane potential. The perfusion solution used comprised 100 mM sodium chloride, 2 mM potassium chloride, 1.8 mM barium chloride and 10 mM HEPES, pH 7.5.

Cytotoxicity = type: cell-based
NR2B mutant N616Q = NR2B mutant N616Q (Homo sapiens, UniProt Q05586+Q13224, N616Q); test: Channel blocking activity on NMDA receptor mutant NR2B N616Q expressed in eggs; type: cell-based; conditions: FIG. 3
From the text: (§1) Site-directed mutagenesis was utilized to construct NMDA receptor mutants with amino acid substitutions. The NMDA receptor mutants were expressed in eggs in the same method as shown in Example 1 to investigate for channel blocking activity of AQ444. […] Other relevant amino acid residues on the NMDA receptors are shown in FIG. 4 together with their models.

NR1/NR2C = NR1/NR2C (Homo sapiens, UniProt Q05586+Q14957); test: Reactivity with NMDA receptor subtype NR1/NR2C expressed on Xenopus oocytes; type: cell-based; conditions: AQ444 0.1 to 30 μM, FIG. 2
Experimental: (§2) AQ444 was added to the perfusion solution to get a final concentration of 0.1 to 30 μM. […] Further, the intensities in channel blocking activity against the receptors were in the order of NR1/NR2A=NR1/NR2B=NR1/NR2D>>NR1/NR2C.

NR1/NR2D = NR1/NR2D (Homo sapiens, UniProt O15399+Q05586); test: Reactivity with NMDA receptor subtype NR1/NR2D expressed on Xenopus oocytes; type: cell-based; conditions: AQ444 0.1 to 30 μM, FIG. 2
Experimental: as §2

NR1 mutant N616R = test: Channel blocking activity on NMDA receptor mutant NR1 N616R expressed in eggs; type: cell-based; conditions: FIG. 3
From the text: as §1

NR1/NR2B = NR1/NR2B (Homo sapiens, UniProt Q05586+Q13224); test: Reactivity with NMDA receptor subtype NR1/NR2B expressed on Xenopus oocytes; type: cell-based; conditions: AQ444 0.1 to 30 μM, FIG. 2
Experimental: as §2

NR1 mutant N616Q = test: Channel blocking activity on NMDA receptor mutant NR1 N616Q expressed in eggs; type: cell-based; conditions: FIG. 3
From the text: as §1

NR2B mutant N615Q = NR2B mutant N615Q (Homo sapiens, UniProt Q05586+Q13224, N615Q); test: Channel blocking activity on NMDA receptor mutant NR2B N615Q expressed in eggs; type: cell-based; conditions: FIG. 3
From the text: as §1

[1] = read-out: 50% inhibition concentration (IC50) of channel blocking activity, membrane potential clamp at −70 mV, 10 μM glycine and 10 μM glutamic acid, Xenopus oocytes

Sequence of NR1/NR2A (Q12879 23-1464, other chains not shown): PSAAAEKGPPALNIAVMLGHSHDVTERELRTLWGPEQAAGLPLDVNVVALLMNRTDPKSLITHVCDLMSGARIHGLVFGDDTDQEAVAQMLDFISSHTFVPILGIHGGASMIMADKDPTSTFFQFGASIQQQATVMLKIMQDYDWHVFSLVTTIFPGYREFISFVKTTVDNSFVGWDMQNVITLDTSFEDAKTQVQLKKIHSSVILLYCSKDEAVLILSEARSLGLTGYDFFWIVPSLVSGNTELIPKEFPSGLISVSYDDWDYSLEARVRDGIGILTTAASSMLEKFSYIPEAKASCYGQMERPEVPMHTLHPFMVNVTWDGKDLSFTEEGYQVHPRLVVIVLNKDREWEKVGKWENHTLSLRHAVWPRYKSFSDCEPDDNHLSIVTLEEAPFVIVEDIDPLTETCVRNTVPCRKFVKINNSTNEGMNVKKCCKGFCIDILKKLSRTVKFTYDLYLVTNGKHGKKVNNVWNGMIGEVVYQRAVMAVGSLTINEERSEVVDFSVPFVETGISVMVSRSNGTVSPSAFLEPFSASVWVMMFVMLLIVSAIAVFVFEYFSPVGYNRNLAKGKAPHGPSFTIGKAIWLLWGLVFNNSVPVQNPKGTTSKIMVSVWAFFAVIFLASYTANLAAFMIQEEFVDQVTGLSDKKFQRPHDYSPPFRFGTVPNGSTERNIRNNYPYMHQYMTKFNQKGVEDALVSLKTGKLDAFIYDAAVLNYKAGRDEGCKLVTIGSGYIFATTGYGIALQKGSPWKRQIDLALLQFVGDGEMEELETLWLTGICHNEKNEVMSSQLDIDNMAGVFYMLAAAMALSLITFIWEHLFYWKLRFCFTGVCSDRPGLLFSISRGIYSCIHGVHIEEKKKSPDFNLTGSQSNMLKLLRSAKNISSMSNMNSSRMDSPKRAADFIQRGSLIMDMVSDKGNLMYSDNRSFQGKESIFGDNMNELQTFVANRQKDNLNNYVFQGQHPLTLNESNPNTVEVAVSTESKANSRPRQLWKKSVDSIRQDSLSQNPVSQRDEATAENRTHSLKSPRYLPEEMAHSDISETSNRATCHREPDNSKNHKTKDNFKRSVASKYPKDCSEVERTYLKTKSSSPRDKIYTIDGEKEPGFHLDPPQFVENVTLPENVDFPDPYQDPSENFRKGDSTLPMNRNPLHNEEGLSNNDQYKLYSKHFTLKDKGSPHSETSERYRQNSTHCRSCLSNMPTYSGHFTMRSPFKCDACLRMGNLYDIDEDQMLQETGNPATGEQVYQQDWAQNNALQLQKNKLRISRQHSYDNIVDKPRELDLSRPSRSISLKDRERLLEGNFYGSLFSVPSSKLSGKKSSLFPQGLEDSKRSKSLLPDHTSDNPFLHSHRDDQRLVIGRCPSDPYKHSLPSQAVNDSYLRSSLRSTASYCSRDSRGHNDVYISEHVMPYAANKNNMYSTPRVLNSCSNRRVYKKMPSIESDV
Sequence of NR2B mutant N615Q (Q13224 27-1484 N615Q, other chains not shown): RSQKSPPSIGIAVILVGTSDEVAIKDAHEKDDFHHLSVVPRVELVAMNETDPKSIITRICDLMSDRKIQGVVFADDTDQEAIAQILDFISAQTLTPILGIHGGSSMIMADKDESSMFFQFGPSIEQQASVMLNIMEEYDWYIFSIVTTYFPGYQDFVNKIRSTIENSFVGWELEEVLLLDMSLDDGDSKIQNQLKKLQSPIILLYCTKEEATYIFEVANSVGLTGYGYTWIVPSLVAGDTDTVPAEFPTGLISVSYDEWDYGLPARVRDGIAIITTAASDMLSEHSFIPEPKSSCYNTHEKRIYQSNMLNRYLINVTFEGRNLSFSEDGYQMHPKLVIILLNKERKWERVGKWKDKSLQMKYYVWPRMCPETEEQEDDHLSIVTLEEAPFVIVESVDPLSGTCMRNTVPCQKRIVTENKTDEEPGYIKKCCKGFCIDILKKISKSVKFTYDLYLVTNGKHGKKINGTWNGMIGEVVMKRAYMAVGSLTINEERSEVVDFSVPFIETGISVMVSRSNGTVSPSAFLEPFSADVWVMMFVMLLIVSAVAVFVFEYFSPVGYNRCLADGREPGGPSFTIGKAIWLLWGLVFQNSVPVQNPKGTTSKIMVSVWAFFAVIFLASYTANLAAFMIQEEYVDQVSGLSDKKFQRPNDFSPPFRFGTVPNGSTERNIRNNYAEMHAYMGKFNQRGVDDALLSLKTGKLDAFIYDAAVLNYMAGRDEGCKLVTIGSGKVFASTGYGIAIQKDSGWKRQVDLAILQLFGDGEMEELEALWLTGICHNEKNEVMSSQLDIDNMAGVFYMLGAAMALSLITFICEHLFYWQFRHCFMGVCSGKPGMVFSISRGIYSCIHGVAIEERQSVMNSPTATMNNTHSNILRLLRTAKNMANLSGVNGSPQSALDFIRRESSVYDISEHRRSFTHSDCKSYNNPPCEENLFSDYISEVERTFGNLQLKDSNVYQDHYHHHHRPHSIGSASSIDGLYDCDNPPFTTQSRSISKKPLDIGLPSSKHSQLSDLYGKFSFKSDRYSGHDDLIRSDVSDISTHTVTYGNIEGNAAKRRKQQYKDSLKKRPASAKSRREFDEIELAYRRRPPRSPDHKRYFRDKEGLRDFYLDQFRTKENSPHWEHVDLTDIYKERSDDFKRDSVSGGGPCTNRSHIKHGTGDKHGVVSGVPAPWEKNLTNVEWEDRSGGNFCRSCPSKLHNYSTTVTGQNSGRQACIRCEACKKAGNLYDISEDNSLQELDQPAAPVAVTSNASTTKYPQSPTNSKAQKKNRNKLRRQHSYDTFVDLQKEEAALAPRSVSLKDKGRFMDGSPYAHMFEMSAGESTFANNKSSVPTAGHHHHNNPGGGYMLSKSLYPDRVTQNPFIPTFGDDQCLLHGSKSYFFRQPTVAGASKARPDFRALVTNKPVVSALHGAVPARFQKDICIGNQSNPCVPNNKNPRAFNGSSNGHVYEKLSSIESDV
Sequence of NR1/NR2B (Q13224 27-1484, other chains not shown): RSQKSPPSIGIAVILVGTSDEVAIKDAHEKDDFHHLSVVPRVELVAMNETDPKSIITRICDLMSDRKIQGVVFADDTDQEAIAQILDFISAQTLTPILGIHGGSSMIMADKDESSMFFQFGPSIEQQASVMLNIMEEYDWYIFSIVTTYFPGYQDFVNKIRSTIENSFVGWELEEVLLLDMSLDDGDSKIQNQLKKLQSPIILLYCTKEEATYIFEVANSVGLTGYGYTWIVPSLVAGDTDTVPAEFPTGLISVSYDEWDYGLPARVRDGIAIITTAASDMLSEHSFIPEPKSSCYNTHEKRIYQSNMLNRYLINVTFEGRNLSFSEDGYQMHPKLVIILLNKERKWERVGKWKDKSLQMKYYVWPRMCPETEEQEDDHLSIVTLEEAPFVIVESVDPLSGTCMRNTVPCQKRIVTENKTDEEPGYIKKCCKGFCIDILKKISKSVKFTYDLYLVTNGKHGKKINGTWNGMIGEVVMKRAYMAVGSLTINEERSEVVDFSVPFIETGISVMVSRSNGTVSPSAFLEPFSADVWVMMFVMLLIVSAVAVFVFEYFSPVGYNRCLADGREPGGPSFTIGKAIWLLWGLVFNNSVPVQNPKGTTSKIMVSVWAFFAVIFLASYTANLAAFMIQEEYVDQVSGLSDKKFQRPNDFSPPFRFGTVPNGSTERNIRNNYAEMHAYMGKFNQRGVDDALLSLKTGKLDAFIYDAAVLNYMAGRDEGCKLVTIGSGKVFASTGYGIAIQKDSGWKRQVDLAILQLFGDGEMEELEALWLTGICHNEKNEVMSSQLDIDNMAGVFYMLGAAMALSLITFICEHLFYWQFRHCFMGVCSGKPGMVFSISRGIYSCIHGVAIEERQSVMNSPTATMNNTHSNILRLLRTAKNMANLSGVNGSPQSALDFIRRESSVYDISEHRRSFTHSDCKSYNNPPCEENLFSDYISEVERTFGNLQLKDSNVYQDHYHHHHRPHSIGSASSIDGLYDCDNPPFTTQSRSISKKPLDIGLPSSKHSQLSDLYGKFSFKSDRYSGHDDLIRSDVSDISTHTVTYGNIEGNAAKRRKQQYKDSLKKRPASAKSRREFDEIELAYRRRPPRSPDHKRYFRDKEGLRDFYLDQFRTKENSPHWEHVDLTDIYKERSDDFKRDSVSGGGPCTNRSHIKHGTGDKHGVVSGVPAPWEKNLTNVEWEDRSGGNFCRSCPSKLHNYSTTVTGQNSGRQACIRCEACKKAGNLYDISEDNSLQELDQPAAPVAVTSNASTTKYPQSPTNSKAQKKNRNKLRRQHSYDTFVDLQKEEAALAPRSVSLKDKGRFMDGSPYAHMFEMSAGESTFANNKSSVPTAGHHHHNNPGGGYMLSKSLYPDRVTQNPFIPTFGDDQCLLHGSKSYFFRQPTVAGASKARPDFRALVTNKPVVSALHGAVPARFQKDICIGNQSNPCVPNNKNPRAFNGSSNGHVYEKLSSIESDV

## NCCCCNCCCCNCCCCNC(=O)N1c2ccccc2C=Cc2ccccc21 [DBA444, Dibenzoazepine Homospermine]
NR1/NR2A
  voltage dependence of channel blocking activity: in a voltage-dependent manner
NR1/NR2A; [1]
  IC50: 0.24 µM
Cytotoxicity
  IC50: 132 µM

## NCCCCNCCCCNCCCCNC(=O)c1ccc2c(c1)C(=O)c1ccccc1C2=O [AQ444, Anthraquinone Homospermine]
NR2B mutant N616Q
  channel blocking activity on mutant: significantly decreased channel blocking activity
NR1/NR2A
  IC50: 0.47 µM
  voltage dependence of channel blocking activity: showed voltage dependence
NR1/NR2A; NR1/NR2A, AQ444 0.1 to 30 μM, FIG. 2
  order of intensity in channel blocking activity among subtypes: NR1/NR2A=NR1/NR2B=NR1/NR2D>>NR1/NR2C
NR1/NR2C
  order of intensity in channel blocking activity among subtypes: NR1/NR2A=NR1/NR2B=NR1/NR2D>>NR1/NR2C
NR1/NR2D
  order of intensity in channel blocking activity among subtypes: NR1/NR2A=NR1/NR2B=NR1/NR2D>>NR1/NR2C
NR1 mutant N616R
  channel blocking activity on mutant: significantly decreased channel blocking activity
NR1/NR2B
  order of intensity in channel blocking activity among subtypes: NR1/NR2A=NR1/NR2B=NR1/NR2D>>NR1/NR2C
NR1 mutant N616Q
  channel blocking activity on mutant: significantly decreased channel blocking activity
NR2B mutant N615Q
  channel blocking activity on mutant: significantly decreased channel blocking activity

## NCCCNCCCCNCCCNC(=O)n1c2ccccc2c2ccccc21 [carbazole spermine, Carbazole Spermine]
NR1/NR2A
  IC50: 15 µM

## NCCCCNCCCCNCCCCNC(=O)N1c2ccccc2CCc2ccccc21 [DDBA444, Dihydrodibenzoazepine Homospermine]
NR1/NR2A
  voltage dependence of channel blocking activity: in a voltage-dependent manner
NR1/NR2A; [1]
  IC50: 0.072 µM
Cytotoxicity
  IC50: 133 µM

## CC12CC3CC(C)(C1)CC(N)(C3)C2 [memantine, reference compound]
Cytotoxicity
  IC50: 147 µM
